What was measured:
Assay type in all cases: biochemical
uPA [1] = target: T1, uPA (Homo sapiens, UniProt P00749); assay: Kinetic progress curves (kapp, mechanism); details: for uPA kapp: apparent second-order rate constant from progress curves, mean ± SD; for uPA mechanism of inhibition: defined by the progress curves: slow-binding (Rev.) or irreversible (Irrev.)
T1 construct: purchased HYPHEN BioMed
Protocol: (§1) Because the compounds described in this paper were previously described as irreversible inhibitors, the IC50 value is inversely correlated with the second-order rate constant of inactivation. For a simple pseudo-first-order inactivation process, the activity after incubation with inhibitor (vi) varies with the inhibitor concentration (i), as described in the following equation: vi=v0·e^−kit where v0 is the activity in the absence of an inhibitor, k is the second-order rate constant of inactivation, and t is the time. The inactivation rate constant was determined from the time course of inhibition.
(§2) Kinetic assays were performed in the following manner. The inhibitor was mixed with the substrate, and the buffer solution with the enzyme was added at the time zero. The progress curves show the release of pNA or AMC as a function of time. Initially, no inhibitor is bound to the enzyme, and the tangent to the progress curve (dA/dt) is proportional to the free enzyme concentration. The free enzyme concentration decreases over time due to inhibitor binding kinetics, as described above. Progress curves were recorded in pseudo-first-order conditions ([I]0>>[E]0) and with less than 10% conversion of the substrate during the entire time course. In these conditions, dA/dt decreases exponentially with time. The progress curves were fitted with the integrated rate equation with GraFit7 to yield a value for kobs, a pseudo-first-order rate constant. At=Ao+vs∙t+vi−vs∙1−e^−kobs∙t/kobs where At is the absorbance at time t, A0 is the absorbance at time zero, vi is the initial rate and vs is the velocity at the steady-state.
(§3) The apparent second-order rate constant (kapp) was calculated from the slope of the linear part of the plot of kobs vs. the inhibitor concentration ([I]0). In the case of competition between the inhibitor and the substrate, kapp is smaller than the “real” second-order rate constant k discussed above because a certain fraction of the enzyme is present as an enzyme-substrate complex. kapp depends on the substrate concentration used in the experiment, as described by [Lambeir et al. (1996)].
(§4) The apparent equilibrium constants were obtained from the following equations, vi/vo=1/1+I/K1; vS/vo=1/1+I/KI* where vi is the initial rate, vs is the steady-state velocity and vo is the uninhibited initial rate.

uPA [2] = target: T1, uPA; assay: Jump dilution, determination of inhibition type; details: inhibitor at 10 times IC50, 15 min, diluted 10-fold or 100-fold; Rev./Irrev.
Protocol: The dissociation of the enzyme-inhibitor complex was monitored by substrate hydrolysis over time ([Joossens et al., 2006]).
Because ABPs are designed to be irreversible serine protease inhibitors, the IC50 is exclusively used as a first discriminatory evaluation. When an inhibitor is irreversible, its IC50 value not only depends on the substrate and enzyme concentration but also on the time of incubation with the enzyme before the reaction is started by adding the substrate. […] The progress curve in the presence of an irreversible inhibitor will show final velocities equal to zero (Figure 6C). In contrast, for a reversible inhibitor, progress curves have a non-zero final steady-state velocity (Figure 6A) ([McWhirter, 2021]). To corroborate the inhibitory mechanism of the compounds, jump-dilution assays were performed. These use an inhibitor concentration of 10-fold the IC50 for the incubation, and a posteriori, the reaction mixture is diluted 10-fold or 100-fold before adding the substrate. In the case of an irreversible inhibitor, enzymatic activity is not regained (Figure 6D), whereas, in the case of a reversible compound, a slow release of the inhibitor and a gradual increase of the enzymatic activity rate is observed (Figure 6B) ([Copeland, 2013]; [McWhirter, 2021]). The jump-dilution assays confirmed the behavior described by the progress curves.
2.2.2 Jump dilution results
Supplementary Table 2. Jump dilution of selected alkyne and desthiobiotin probes against a panel of trypsin-like serine proteases. […]
# R R DtBa 3 tryptase Thrombin uPA CatG
32b H Alk Irrev. Irrev. Rev. Irrev. Rev.
45b DtB Irrev. Irrev. Rev. N.D. N.D.
33b Alk Irrev. Irrev. Rev. Irrev. Rev.
46b Cl DtB Irrev. Irrev. Rev. N.D. N.D.
34b H Alk Rev. Rev. Rev. Irrev. Rev.
50b DtB Rev. Rev. Rev. Irrev. Rev.
35b Alk Rev. Rev. Rev. Irrev. Rev.
52b NHCOMe DtB Rev. Rev. Rev. Irrev. Rev.
36b Alk Rev. Rev. Rev. Irrev. Rev.
54b Cl DtB Rev. Rev. Rev. Irrev. Rev.
37b Alk Irrev. Irrev. N.D. Irrev. Irrev.
55b H DtB Irrev. Irrev. N.D. Irrev. Irrev.
38b Alk Irrev. Irrev. N.D. Irrev. Irrev.
56b NHCOMe DtB Irrev. Irrev. N.D. Irrev. Irrev.
39b Alk Irrev. Irrev. N.D. Irrev. Rev.
57b Cl DtB Irrev. Irrev. N.D. Irrev. Rev.
41b H Alk Irrev. Irrev. Irrev. N.D. N.D.
31b Pro-Lys H Alk Irrev. Irrev. Irrev. Irrev. N.D. a Alk: ABP precursor bearing an alkyne; DtB: desthiobiotin probe b Panel of serine proteases abbreviations: urokinase plasminogen activator (uPA), cathepsin G (catG) N.D.: IC50 is greater than 10µM, and jump dilution was not performed
2.2.3 Progress curves and Jump dilution experiments
Kinetic assays were performed in the following manner. The inhibitor was mixed with the substrate, and the buffer solution with the enzyme was added at the time zero. The progress curves show the release of para-nitroaniline (pNA) or 7-amino-4-methyl coumarin (AMC) as a function of time.
To monitor the dissociation of the inhibitor-enzyme, aliquots of the enzyme were incubated at 37 °C without and with the inhibitor at a concentration 10 times higher than its IC 50. The enzyme […]
min, the aliquots were diluted 10-fold or 100-fold into the substrate concentration and assay buffer used for the IC50 determination. The dissociation of the enzyme-inhibitor complex was monitored by substrate hydrolysis over time. Blue lines represent the control where no inhibitor was present. Pink lines represent the assay with inhibitor.

Trypsin-3 = target: T2, Trypsin-3 (Homo sapiens, UniProt P35030); assay: Kinetic progress curves (kapp, K1, KI*, mechanism); set-up: purchased R&D; details: for Ki / Trypsin-3 kapp: mean ± SD; for Trypsin-3 mechanism of inhibition: defined by the progress curves: slow-binding (Rev.) or irreversible (Irrev.); for Trypsin-3 kapp: apparent second-order rate constant from progress curves
T2 sequence (P35030 1-304): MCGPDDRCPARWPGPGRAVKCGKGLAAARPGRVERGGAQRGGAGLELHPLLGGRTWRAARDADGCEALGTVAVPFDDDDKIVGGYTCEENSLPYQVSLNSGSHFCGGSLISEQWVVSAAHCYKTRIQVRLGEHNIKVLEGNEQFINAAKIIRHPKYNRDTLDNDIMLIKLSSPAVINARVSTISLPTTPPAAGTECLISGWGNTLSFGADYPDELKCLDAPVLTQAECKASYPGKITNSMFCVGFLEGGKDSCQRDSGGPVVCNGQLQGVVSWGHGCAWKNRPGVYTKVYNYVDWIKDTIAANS
Protocol: as §1, §2, §3, §4

[3] = Trypsin-3 K1, apparent equilibrium constant of the first step of slow-binding
[4] = Trypsin-3 KI*, apparent equilibrium constant of the overall process

C[C@@H]1NC(=O)N[C@@H]1CCCCCC(=O)NCCOCCOCCOCCn1cc(CCCOC(=O)NC(Cc2ccc(NC(=N)N)cc2)P(=O)(Oc2ccc(Cl)cc2)Oc2ccc(Cl)cc2)nn1 (some centres unmarked) [54b]
uPA kapp (uPA [1]): 230000 ± 36000 M⁻¹ s⁻¹ | uPA mechanism of inhibition (uPA [1]): Irrev. | uPA jump dilution result (uPA [2]): Irrev. | Ki (Trypsin-3; [3]): 6 ± 0.5 nM | Ki (Trypsin-3; [4]): 0.8 nM | Trypsin-3 mechanism of inhibition (Trypsin-3): * ^d Rev.

C#CCCCOC(=O)NC(Cc1ccc(NC(=N)N)cc1)P(=O)(Oc1ccccc1)Oc1ccccc1 (centres unmarked) [34b]
uPA kapp (uPA [1]): 75 × 10^2 ± 725 M^−1 s^−1 | uPA mechanism of inhibition (uPA [1]): Irrev. | uPA jump dilution result (uPA [2]): Irrev. | Ki (Trypsin-3; [3]): 29 ± 5 nM | Ki (Trypsin-3; [4]): 3 ± 0.3 nM | Trypsin-3 kapp (Trypsin-3): 40 × 10^3 ± 2642 M^−1 s^−1 | selectivity for trypsin-3 over β-tryptase (Trypsin-3; based on the kapp values): 55 fold | selectivity for trypsin-3 versus thrombin (Trypsin-3; based on the kapp values): over 2000 fold | selectivity for trypsin-3 versus uPA (Trypsin-3; based on the kapp values): 5 fold | Trypsin-3 mechanism of inhibition (Trypsin-3): reversible slow-binding and Rev.

C[C@@H]1NC(=O)N[C@@H]1CCCCCC(=O)NCCOCCOCCOCCn1cc(CCCOC(=O)NC(c2ccc(NC(=N)N)cc2)P(=O)(Oc2ccccc2)Oc2ccccc2)nn1 (some centres unmarked) [55b]
uPA kapp (uPA [1]): 77 ± 1 M⁻¹ s⁻¹ | uPA mechanism of inhibition (uPA [1]): Irrev. | uPA jump dilution result (uPA [2]): Irrev. | Trypsin-3 kapp (Trypsin-3): 231 ± 18 M⁻¹ s⁻¹ | Trypsin-3 mechanism of inhibition (Trypsin-3): Irrev.

CC(=O)Nc1ccc(OP(=O)(Oc2ccc(NC(C)=O)cc2)C(NC(=O)OCCCc2cn(CCOCCOCCOCCNC(=O)CCCCC[C@H]3NC(=O)N[C@H]3C)nn2)c2ccc(NC(=N)N)cc2)cc1 (some centres unmarked) [56b]
uPA kapp (uPA [1]): 62 ± 2 M⁻¹ s⁻¹ | uPA mechanism of inhibition (uPA [1]): Irrev. | uPA jump dilution result (uPA [2]): Irrev. | Trypsin-3 kapp (Trypsin-3): 334 ± 85 M⁻¹ s⁻¹ | Trypsin-3 mechanism of inhibition (Trypsin-3): Irrev.

C#CCCCOC(=O)NC(Cc1ccc(NC(=N)N)cc1)P(=O)(Oc1ccc(NC(C)=O)cc1)Oc1ccc(NC(C)=O)cc1 (centres unmarked) [35b]
uPA kapp (uPA [1]): 130000 ± 30000 M⁻¹ s⁻¹ | uPA mechanism of inhibition (uPA [1]): Irrev. | uPA jump dilution result (uPA [2]): Irrev. | Ki (Trypsin-3; [3]): 1 ± 0.1 nM | Ki (Trypsin-3; [4]): 0.1 nM | Trypsin-3 mechanism of inhibition (Trypsin-3): * ^d Rev.

From paper PMC9849758, “Chemically diverse activity-based probes with unexpected inhibitory mechanisms targeting trypsin-like serine proteases” (Frontiers in Chemistry, 2023)
